Molecules are shown by their SMILES. pIC50: −log10 of the molar value.

Chain of human Nav1.8 (Q9Y5Y9 whole entry): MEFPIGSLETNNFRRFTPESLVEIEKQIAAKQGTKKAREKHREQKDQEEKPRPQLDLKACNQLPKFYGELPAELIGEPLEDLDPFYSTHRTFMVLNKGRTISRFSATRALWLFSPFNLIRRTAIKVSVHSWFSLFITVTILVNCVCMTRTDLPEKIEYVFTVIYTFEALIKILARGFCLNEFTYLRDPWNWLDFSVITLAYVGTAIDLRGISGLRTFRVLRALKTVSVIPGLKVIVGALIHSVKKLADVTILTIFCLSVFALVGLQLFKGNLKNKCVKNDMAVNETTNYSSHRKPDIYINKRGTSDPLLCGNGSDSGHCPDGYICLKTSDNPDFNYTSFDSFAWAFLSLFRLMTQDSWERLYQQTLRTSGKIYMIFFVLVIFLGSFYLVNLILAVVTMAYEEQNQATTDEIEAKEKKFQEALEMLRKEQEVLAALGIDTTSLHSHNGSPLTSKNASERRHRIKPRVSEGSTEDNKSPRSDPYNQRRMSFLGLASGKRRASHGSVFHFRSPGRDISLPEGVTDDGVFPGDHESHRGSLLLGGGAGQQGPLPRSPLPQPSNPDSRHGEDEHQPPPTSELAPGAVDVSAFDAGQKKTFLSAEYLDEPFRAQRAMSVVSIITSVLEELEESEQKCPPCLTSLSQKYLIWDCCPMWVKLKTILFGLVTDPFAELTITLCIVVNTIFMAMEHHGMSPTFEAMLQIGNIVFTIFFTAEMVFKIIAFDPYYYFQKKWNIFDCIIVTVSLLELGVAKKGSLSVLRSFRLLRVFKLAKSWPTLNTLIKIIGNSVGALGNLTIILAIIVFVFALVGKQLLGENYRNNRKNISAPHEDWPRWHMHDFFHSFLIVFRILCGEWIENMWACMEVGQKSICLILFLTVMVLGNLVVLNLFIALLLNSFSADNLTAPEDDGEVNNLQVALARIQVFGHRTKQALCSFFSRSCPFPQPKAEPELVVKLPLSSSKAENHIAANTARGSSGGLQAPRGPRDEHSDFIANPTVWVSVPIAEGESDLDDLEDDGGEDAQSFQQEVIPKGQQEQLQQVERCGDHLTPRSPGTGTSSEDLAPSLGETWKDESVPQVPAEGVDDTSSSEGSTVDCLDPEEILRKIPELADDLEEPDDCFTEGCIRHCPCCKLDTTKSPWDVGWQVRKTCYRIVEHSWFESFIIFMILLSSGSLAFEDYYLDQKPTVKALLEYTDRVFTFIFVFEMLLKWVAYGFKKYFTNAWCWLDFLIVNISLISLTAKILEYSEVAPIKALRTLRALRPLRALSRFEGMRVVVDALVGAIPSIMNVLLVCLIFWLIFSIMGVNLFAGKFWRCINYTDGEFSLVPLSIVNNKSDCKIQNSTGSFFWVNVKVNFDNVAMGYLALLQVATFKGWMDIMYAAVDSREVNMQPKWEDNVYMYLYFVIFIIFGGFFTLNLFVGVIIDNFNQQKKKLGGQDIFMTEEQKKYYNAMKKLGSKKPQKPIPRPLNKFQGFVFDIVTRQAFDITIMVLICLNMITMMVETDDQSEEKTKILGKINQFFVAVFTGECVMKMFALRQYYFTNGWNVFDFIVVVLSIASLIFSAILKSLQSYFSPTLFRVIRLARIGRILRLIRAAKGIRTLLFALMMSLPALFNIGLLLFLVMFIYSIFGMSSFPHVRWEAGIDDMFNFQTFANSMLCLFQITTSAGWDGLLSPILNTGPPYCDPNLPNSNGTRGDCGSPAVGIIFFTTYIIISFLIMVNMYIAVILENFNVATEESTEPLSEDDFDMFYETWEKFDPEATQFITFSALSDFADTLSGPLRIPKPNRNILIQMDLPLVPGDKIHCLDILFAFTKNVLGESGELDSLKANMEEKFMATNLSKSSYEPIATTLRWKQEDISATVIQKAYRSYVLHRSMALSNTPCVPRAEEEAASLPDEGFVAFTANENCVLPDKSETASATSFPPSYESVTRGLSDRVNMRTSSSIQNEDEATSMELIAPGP

In the test the target is human Nav1.8 (Homo sapiens (Human), UniProt Q9Y5Y9). Kind of test: Nav1.8 Qube® Assay (automated 384-well patch-clamp). The following applies: human Nav1.8 channels stably expressed in HEK 293 cells. It is filed as cell-based. The text has this:
Qube® Assay Experimental Procedure
Broadly, the pIC50 is the IC50 on a negative log10 scale, so that one unit is a factor of ten. A lower pIC50 goes with a large IC50. In turn, `O=C1NC[C@@H](C(=O)NC(c2ccc(F)c(Cl)c2)c2cnn(CC(F)(F)F)c2)O1` (single isomer, unassigned) [Example 59B, (S)-N-((R or S)-(3-chloro-4-fluorophenyl)(1-(2,2,2-trifluoroethyl)-1H-pyrazol-4-yl)methyl)-2-oxooxazolidine-5-carboxamide] gave a pIC50 of 6.16.
To `COc1ccc(Cl)cc1C(NC(=O)[C@@H]1CNC(=O)O1)c1cccc(Cl)c1` (single isomer, unassigned) [Example 28B, (S)-N-((R or S)-(5-chloro-2-methoxyphenyl)(3-chlorophenyl)methyl)-2-oxooxazolidine-5-carboxamide] belongs 8.08.
Turning to `O=C1NC[C@@H](C(=O)NC(c2ccc(Cl)cc2)c2ccc(Cl)c(C(F)(F)F)c2)O1` (single isomer, unassigned) [Example 35A, (S)-N-((R or S)-(4-chloro-3-(trifluoromethyl)phenyl)(4-chlorophenyl)methyl)-2-oxooxazolidine-5-carboxamide], the pIC50 was 9.40.
With `O=C1NC[C@@H](C(=O)NC(c2ccc(Cl)cc2)c2ccc(C(F)(F)F)cn2)O1` (single isomer, unassigned) [Example 37A, (S)-N-((R or S)-(4-chlorophenyl)(5-(trifluoromethyl)pyridin-2-yl)methyl)-2-oxooxazolidine-5-carboxamide] the figure was 6.95; with `O=C1NC[C@@H](C(=O)NC(c2ccc(Cl)cc2)c2ccc(F)c(Cl)c2)O1` (single isomer, unassigned) [Example 19B, (S)—N—((R or S)-(3-chloro-4-fluorophenyl)(4-chlorophenyl)methyl)-2-oxooxazolidine-5-carboxamide], 8.62; with `O=C1NC[C@@H](C(=O)NC(c2ccc(Cl)cc2)C23CCC(CC2)C3)O1` (single isomer, unassigned) [Example 3B, (S)-N-((R or S)-bicyclo[2.2.1]heptan-1-yl(4-chlorophenyl)methyl)-2-oxooxazolidine-5-carboxamide], 5.84.
`O=C1NC[C@@H](C(=O)NC(c2cccc(Cl)c2)C2CC2c2ccccc2)O1` (single isomer, unassigned) [Example 26B, (5S)-N-((R or S)-(3-chlorophenyl) ((cis or trans)-2-phenylcyclopropyl)methyl)-2-oxooxazolidine-5-carboxamide]: the negative logarithm of the IC50 (pIC50) was 7.15.
With `O=C1NC[C@@H](C(=O)NC(c2ccc(F)c(Cl)c2)c2ccc(Cl)cn2)O1` (single isomer, unassigned) [Example 14B, (S)-N-((R or S)-(3-chloro-4-fluorophenyl)(5-chloropyridin-2-yl)methyl)-2-oxooxazolidine-5-carboxamide] the figure was 7.47.
In turn, `O=C1NC[C@@H](C(=O)NC(c2ccc(Cl)cc2)c2c[nH]c(C(F)(F)F)n2)O1` (single isomer, unassigned) [Example 17A, (S)-N-((R or S)-(4-chlorophenyl)(2-(trifluoromethyl)-1H-imidazol-4-yl)methyl)-2-oxooxazolidine-5-carboxamide] had a pIC50 of 6.23.
To `O=C1NC[C@@H](C(=O)NC(c2ccc(Cl)cc2)c2c[nH]c(C(F)(F)F)n2)O1` (single isomer, unassigned) [Example 17B, (S)-N-((R or S)-(4-chlorophenyl)(2-(trifluoromethyl)-1H-imidazol-4-yl)methyl)-2-oxooxazolidine-5-carboxamide] belongs 4.97.
Compound `N#Cc1cc(C(NC(=O)[C@@H]2CNC(=O)O2)c2ccc(F)c(Cl)c2)ccc1F` (single isomer, unassigned) [Example 69, (S)-N-((R or S)-(3-chloro-4-fluorophenyl)(3-cyano-4-fluorophenyl)methyl)-2-oxooxazolidine-5-carboxamide] showed a negative logarithm of the IC50 (pIC50) of 7.80.
To `O=C1NC[C@@H](C(=O)NC(c2ccc(Cl)cc2)c2ccc(C(F)(F)F)cn2)O1` (single isomer, unassigned) [Example 37B, (S)-N-((R or S)-(4-chlorophenyl)(5-(trifluoromethyl)pyridin-2-yl)methyl)-2-oxooxazolidine-5-carboxamide] belongs 7.59.
As for `O=C1NC[C@@H](C(=O)NC(COc2ccc(F)c(Cl)c2)c2ccc(F)c(Cl)c2)O1` (single isomer, unassigned) [Example 8A, (S)—N—((R or S)-2-(3-chloro-4-fluorophenoxy)-1-(3-chloro-4-fluorophenyl)ethyl)-2-oxooxazolidine-5-carboxamide], the negative logarithm of the IC50 (pIC50) is 7.40.
To `O=C1NC[C@@H](C(=O)NC(c2ccc(Cl)cc2)C2CCCCCC2)O1` (stereo partly drawn) [Example 45, (5S)-N-((4-chlorophenyl)(cyclo-heptyl)methyl)-2-oxooxazolidine-5-carboxamide] belongs 7.06; to `O=C1NC[C@@H](C(=O)NC(c2ccc(C(F)(F)F)nc2)c2csc(C(F)(F)F)n2)O1` (stereo partly drawn) [Example 64, (5S)-2-oxo-N-((6-(trifluoromethyl)pyridin-3-yl)(2-(trifluoromethyl)thiazol-4-yl)methyl)oxazolidine-5-carboxamide], 6.89; to `O=C1NC[C@@H](C(=O)NC(c2ccc(F)c(Cl)c2)c2ccn(C(F)F)n2)O1` (single isomer, unassigned) [Example 60B, (S)-N-((R or S)-(3-chloro-4-fluorophenyl)(1-(difluoromethyl)-1H-pyrazol-3-yl)methyl)-2-oxooxazolidine-5-carboxamide], 6.91.
Compound `O=C1NC[C@@H](C(=O)NC(c2ccc(Cl)cc2)c2ccc(F)cn2)O1` (single isomer, unassigned) [Example 23B, (S)-N-((R or S)-(4-chlorophenyl)(5-fluoropyridin-2-yl)methyl)-2-oxooxazolidine-5-carboxamide] gave a negative-log IC50 (pIC50) of 6.63.
`O=C1NC[C@@H](C(=O)NC(c2ccc(Cl)cc2)c2ccc3ccccc3c2)O1` (stereo partly drawn) [Example 31, (5S)-N-((4-chlorophenyl) (naphthalen-2-yl)methyl)-2-oxooxazolidine-5-carboxamide] had a negative-log IC50 (pIC50) of 8.41.
The compound `COc1ccc(C(NC(=O)[C@@H]2CNC(=O)O2)c2ccc(Cl)cc2)cn1` (single isomer, unassigned) [Example 22A, (S)-N-((R or S)-(4-chlorophenyl)(6-methoxypyridin-3-yl)methyl)-2-oxooxazolidine-5-carboxamide] had a pIC50 of 6.89.
With `CC1NC(=O)OC1C(=O)NC(c1ccc(Cl)cc1)c1ccc(Cl)cc1` (single isomer, unassigned) [Example 6B, (cis or trans)-N-(bis(4-chlorophenyl)methyl)-4-methyl-2-oxooxazolidine-5-carboxamide] the figure was 5.82.
In the case of `O=C1NC[C@@H](C(=O)NC(COc2ccc(C(F)(F)F)nc2)c2ccc(F)c(Cl)c2)O1` (stereo partly drawn) [Example 66, (5S)-N-(1-(3-chloro-4-fluorophenyl)-2-((6-(trifluoro-methyl)pyridin-3-yl)oxy)ethyl)-2-oxooxazolidine-5-carboxamide], the pIC50 was 6.57.
To `O=C1NC[C@@H](C(=O)NC(c2ccc(Cl)cc2)c2nc(C(F)(F)F)c[nH]2)O1` (stereo partly drawn) [Example 40, (5S)-N-((4-chlorophenyl)(4-(trifluoromethyl)-1H-imidazol-2-yl)methyl)-2-oxooxazolidine-5-carboxamide] belongs 6.40; to `O=C1NC[C@@H](C(=O)NC(c2ccc(F)c(Cl)c2)C2CCN(CC(F)(F)F)C2)O1` (single isomer, unassigned) [Example 43A, (S)-N-((R or S)-(3-chloro-4-fluorophenyl)((R or S)-1-(2,2,2-trifluoroethyl)pyrrolidin-3-yl)methyl)-2-oxooxazolidine-5-carboxamide], 5.75; to `O=C1NC[C@@H](C(=O)NC(c2ccc(F)c(Cl)c2)c2cccc(C(F)(F)F)n2)O1` (single isomer, unassigned) [Example 49A, (S)-N-((R or S)-(3-chloro-4-fluorophenyl)(6-(trifluoromethyl)pyridin-2-yl)methyl)-2-oxooxazolidine-5-carboxamide], 8.06.
With `O=C1NC[C@@H](C(=O)NC(c2ccc(Cl)cc2)c2cccc(C3CC3)c2)O1` (single isomer, unassigned) [Example 33B, (S)-N-((R or S)-(4-chlorophenyl)(3-cyclopropylphenyl)methyl)-2-oxooxazolidine-5-carboxamide] the figure was 8.03; with `O=C1NC[C@@H](C(=O)NC(c2ccc(Cl)cc2)C23C4C5C6C4C2C6C53)O1` (single isomer, unassigned) [Example 56A, (S)—N—((R or S)-(4-chlorophenyl)(cuban-1-yl)methyl)-2-oxooxazolidine-5-carboxamide], 6.64.
As for `O=C1NC[C@@H](C(=O)NC(CCc2ccc(Cl)cc2)c2ccc(F)c(Cl)c2F)O1` (single isomer, unassigned) [Example 65B, (S)—N—((R or S)-1-(3-chloro-2,4-difluorophenyl)-3-(4-chlorophenyl)propyl)-2-oxooxazolidine-5-carboxamide], the pIC50 is 7.96.
To `O=C1NC[C@@H](C(=O)NC(c2ccc(Cl)cc2)c2nc(C(F)(F)F)cs2)O1` (single isomer, unassigned) [Example 12A, (S)-N-((R or S)-(4-chlorophenyl)(4-(trifluoromethyl)thiazol-2-yl)methyl)-2-oxooxazolidine-5-carboxamide] belongs 7.80; to `CC(NC(=O)[C@@H]1CNC(=O)O1)(c1ccc(Cl)cc1)c1ccc(Cl)cc1` [Example 41, (S)-N-(1,1-bis(4-chlorophenyl)ethyl)-2-oxooxazolidine-5-carboxamide], 6.42; to `O=C1NC[C@@H](C(=O)NC(c2ccc(Cl)cc2)c2coc(C(F)(F)F)n2)O1` (single isomer, unassigned) [Example 18B, (S)-N-((R or S)-(4-chlorophenyl)(2-(trifluoromethyl)oxazol-4-yl)methyl)-2-oxooxazolidine-5-carboxamide], 6.57.
With `O=C1NC[C@@H](C(=O)NC(c2ccc(Cl)cc2)c2n[nH]c3ccccc23)O1` (single isomer, unassigned) [Example 15B, (S)-N-((R or S)-(4-chlorophenyl)(1H-indazol-3-yl)methyl)-2-oxooxazolidine-5-carboxamide] the figure was 7.24.

Source of the values: US12516046B2, “2-oxo-oxazolidine-5-carboxamides as NAV1.8 inhibitors” (Merck Sharp & Dohme LLC, priority 2020, dated 2026).
